Measured values from US9079895B2, “Morpholino compounds, uses and methods” (University of Dundee, priority 2012, dated 2015).

Legend:
dopamine D2 receptor = dopamine D2 receptor (Homo sapiens (Human), UniProt P14416); experiment: Functional assay against the dopamine D2 receptor; type: cell-based; conditions: data not shown
Excerpt: (§1) The detailed experimental protocols for the radioligand and functional receptor assays are available on the NIMH PDSP website at http://pdsp.med.unc.edu/UNC-CH %20Protocol %20Book.pdf.

dopamine D4 receptor = dopamine D4 receptor (Homo sapiens (Human), UniProt P21917); experiment: Functional assay against the dopamine D4 receptor; type: cell-based; conditions: data not shown
Excerpt: as §1

5HT1b receptor = 5HT1b receptor (Homo sapiens (Human), UniProt P28222); experiment: Secondary radioligand binding assay, 5HT1b; conditions: average of at least two experiments
Description: Secondary Radioligand Binding Assays
Assay Buffer: Standard Binding Buffer (50 mM Tris-HCl, 10 mM MgCl2, 1 mM EDTA, pH 7.4)
Membrane Fraction Source: Transiently or stably transfected cell lines (e.g., HEK293, COS, CHO, NIH3T3)
Radioligand is diluted to five times the assay concentration (see Table 18) in Standard Binding Buffer. Typically, the assay concentration of radioligand is a value between one half the KD and the KD of a particular radioligand at its target. 50 μl aliquots of radioligand are dispensed into the wells of a 96-well plate containing 100 μl of Standard Binding Buffer. Then, duplicate 50 μl aliquots of the test and reference compound dilutions are added.
The 250 μl reactions are incubated at room temperature and shielded from light (to prevent photolysis of light-sensitive ligands) for 1.5 hours, then harvested by rapid filtration onto Whatman GF/B glass fiber filters pre-soaked with 0.3% polyethyleneimine using a 96-well Brandel harverster. Four rapid 500 μl washes are performed with chilled Standard Binding Buffer to reduce non-specific binding. Filters are placed in 6 ml scintillation tubes and allowed to dry overnight. […] The tubes are capped, labeled, and counted by liquid scintillation counting. […] The filter mats are dried, then scintillant is melted onto the filters and the radioactivity retained on the filters is counted in a Microbeta scintillation counter. […]

[1] = Metabolic stability assay (in vitro), mouse hepatic microsomes; type: in vitro ADME; conditions: mouse liver microsomes, 0.5 μM test compound
Description: 3. Metabolic Stability Assay (In Vitro)
Metabolic stability was assessed, generating the in vitro intrinsic clearance (Cli) following incubation of test compound with mouse hepatic microsomes. The assay was performed as previously described (Ruda et al. (2010), “Aryl Phosphoramidates of 5-phosho erythronohydroxamic acid, a new class of potent trypanocidal agents”, J. Med. Chem. 53, pp 6071-6078).
Briefly, each test compound (0.5 μM) was incubated with pooled female mouse liver microsomes (Tebu-Bio, UK; 0.5 mg/ml 50 mM potassium phosphate buffer, pH7.4) and the reaction started with addition of excess NADPH (8 mg/ml 50 mM potassium phosphate buffer, pH7.4) Immediately, at time zero, then at 3, 6, 9, 15 and 30 minutes an aliquot (50 μl) of the incubation mixture was removed and mixed with acetonitrile (100 μl) to stop the reaction. Internal standard was added to all samples. […]
XLfit (IDBS, UK) was used to calculate the exponential decay and consequently the rate constant (k) from the ratio of peak area of test compound to internal standard at each timepoint. The rate of intrinsic clearance (CLi) of each compound was then calculated using the following equation (1): CLi(ml/min/g liver)=k×V×Microsomal protein yield (1) where V (ml/mg protein) is the incubation volume/mg protein added and microsomal protein yield is taken as 52.5 mg protein/g liver. […]

Chain of dopamine D2 receptor (P14416 whole entry, species assumed): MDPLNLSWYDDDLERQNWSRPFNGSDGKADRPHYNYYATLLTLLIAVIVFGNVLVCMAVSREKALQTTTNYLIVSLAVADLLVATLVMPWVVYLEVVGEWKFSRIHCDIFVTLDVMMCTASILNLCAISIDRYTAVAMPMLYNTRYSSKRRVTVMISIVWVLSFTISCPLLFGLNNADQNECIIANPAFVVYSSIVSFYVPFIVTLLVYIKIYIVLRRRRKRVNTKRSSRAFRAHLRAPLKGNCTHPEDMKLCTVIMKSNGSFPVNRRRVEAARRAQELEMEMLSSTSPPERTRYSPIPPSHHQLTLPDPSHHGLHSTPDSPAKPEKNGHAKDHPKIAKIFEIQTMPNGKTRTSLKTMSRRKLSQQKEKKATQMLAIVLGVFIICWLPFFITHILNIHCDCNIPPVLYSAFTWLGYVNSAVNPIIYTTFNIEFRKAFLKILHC
Chain of dopamine D4 receptor (P21917 whole entry, species assumed): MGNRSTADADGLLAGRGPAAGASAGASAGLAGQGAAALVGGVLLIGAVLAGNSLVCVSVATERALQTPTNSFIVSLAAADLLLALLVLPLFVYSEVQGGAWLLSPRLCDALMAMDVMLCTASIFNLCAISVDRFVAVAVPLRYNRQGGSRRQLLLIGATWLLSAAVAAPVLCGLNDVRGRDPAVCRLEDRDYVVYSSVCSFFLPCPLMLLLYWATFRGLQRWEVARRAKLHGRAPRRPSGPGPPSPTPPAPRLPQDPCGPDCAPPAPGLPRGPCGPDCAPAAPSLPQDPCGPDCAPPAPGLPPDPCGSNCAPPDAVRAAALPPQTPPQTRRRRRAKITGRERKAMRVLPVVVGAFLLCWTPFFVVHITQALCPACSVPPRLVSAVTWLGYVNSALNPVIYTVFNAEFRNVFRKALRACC
Chain of 5HT1b receptor (P28222 whole entry): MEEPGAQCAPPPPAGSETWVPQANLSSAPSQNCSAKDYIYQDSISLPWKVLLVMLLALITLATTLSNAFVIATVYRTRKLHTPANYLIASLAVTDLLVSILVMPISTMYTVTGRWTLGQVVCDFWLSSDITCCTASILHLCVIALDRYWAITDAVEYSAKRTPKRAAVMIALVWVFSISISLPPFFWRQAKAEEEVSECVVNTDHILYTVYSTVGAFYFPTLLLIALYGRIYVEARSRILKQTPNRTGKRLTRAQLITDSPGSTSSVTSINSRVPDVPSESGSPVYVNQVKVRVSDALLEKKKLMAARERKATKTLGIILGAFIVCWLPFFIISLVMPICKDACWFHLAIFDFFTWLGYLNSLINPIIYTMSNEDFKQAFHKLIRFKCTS

| Compound | function at the dopamine D2 receptor (dopamine D2 receptor) | function at the dopamine D4 receptor (dopamine D4 receptor) | Ki (5HT1b receptor) [µM] | mouse hepatic microsomal Cli (intrinsic clearance) [1] [mL/min/g] |
| --- | --- | --- | --- | --- |
| c1cncc(OC[C@@H]2CN(CCN3CCc4ccccc43)CCO2)c1 [Compound 21s, (S)-4-(2-(Indolin-1-yl)ethyl)-2-((pyridin-3-yloxy)methyl)morpholine] | inverse agonists | inverse agonists |  |  |
| O=C(CN1CCO[C@@H](COc2cccc(Cl)c2)C1)N1CCc2ccccc21 [Compound 22r, (R)-2-(2-((3-chlorophenoxy)methyl)morpholino)-1-(indolin-1-yl)ethanone] | inverse agonists | inverse agonists |  |  |
| O=C(CN1CCO[C@H](COc2cccc(Cl)c2)C1)N1CCc2ccccc21 [Compound 22s, (S)-2-(2-((3-Chlorophenoxy)methyl)morpholino)-1-(indolin-1-yl)ethanone] |  |  | 7.77 |  |
| COc1cccc(OC[C@@H]2CN(CC(=O)N3CCc4ccccc43)CCO2)c1 [Compound 24s, (S)-1-(Indolin-1-yl)-2-(2-((3-methoxyphenoxy)methyl)morpholino)ethanone] |  |  | 4.83 |  |
| Clc1cncc(OC[C@@H]2CN(CCN3CCc4ccccc43)CCO2)c1 [Compound 27s, (S)-2-(((5-Chloropyridin-3-yl)oxy)methyl)-4-(2-(indolin-1-yl)ethyl)morpholine] |  |  |  | 25 |
